{
  "source": "paper PMC9527238",
  "about": "“Glutamate and GABAA receptor crosstalk mediates homeostatic regulation of neuronal excitation in the mammalian brain” (Signal Transduction and Targeted Therapy, 2022)",
  "assay_type_in_all_cases": "cell-based",
  "key": {"αK104Dβ GABAAR": {"molecular_target": "T1, αK104Dβ GABAAR (Rattus norvegicus, UniProt P62813+P63138, K131D)", "T1 construct": "expressed in transfected cells; host or cells: HEK293", "T1 sequence (P62813 28-455 K131D)": "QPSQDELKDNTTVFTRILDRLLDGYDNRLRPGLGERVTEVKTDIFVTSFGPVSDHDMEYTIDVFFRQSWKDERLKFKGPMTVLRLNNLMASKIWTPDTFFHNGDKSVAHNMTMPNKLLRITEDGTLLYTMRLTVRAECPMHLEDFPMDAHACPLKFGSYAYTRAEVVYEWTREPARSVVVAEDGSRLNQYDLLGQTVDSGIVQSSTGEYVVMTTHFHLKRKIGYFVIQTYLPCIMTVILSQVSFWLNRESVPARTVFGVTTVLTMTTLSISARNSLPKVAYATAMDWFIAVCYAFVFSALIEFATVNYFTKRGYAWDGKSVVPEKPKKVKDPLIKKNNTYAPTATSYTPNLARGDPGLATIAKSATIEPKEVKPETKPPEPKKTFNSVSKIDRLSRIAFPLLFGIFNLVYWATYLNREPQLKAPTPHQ", "T1 sequence (P63138 26-474)": "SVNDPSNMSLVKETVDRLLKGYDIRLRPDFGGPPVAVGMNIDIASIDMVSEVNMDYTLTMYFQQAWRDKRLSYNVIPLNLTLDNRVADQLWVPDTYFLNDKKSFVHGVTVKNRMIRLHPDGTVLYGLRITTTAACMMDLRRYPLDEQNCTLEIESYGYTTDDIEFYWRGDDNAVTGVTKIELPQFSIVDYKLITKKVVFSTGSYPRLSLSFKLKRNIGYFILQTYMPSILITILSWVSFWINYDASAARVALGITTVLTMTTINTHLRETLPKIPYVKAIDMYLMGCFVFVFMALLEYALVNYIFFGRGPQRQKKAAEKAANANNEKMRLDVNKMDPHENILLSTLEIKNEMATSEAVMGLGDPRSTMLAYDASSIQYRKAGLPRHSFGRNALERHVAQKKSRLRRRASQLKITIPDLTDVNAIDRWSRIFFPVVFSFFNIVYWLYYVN", "assay": "Patch clamp, HEK293, mutant α1β2 GABAAR", "conditions": "HEK293, read-out: Glutamate potentiation of GABA currents, % of control, normalized to wild-type α1β2", "description": "(§1) The subunits are color-coded individually. The boxed regions are further enlarged in the middle panels, highlighting the predicted glutamate binding pocket in the α+ and β− interface, just below the loop C. […] Relative potentiation was obtained by normalizing potentiation observed in the mutated receptor to that in the respective wild-type receptor.\n(§2) HEK293 cells were cultured in DMEM (Invitrogen) supplemented with 10% fetal bovine serum. Cells were grown to 40–60% confluence and transiently transfected using Lipofectamine 2000 (Invitrogen) with 1:0.5–1 plasmid/lipid ratio. Cells were transfected with a pBK-CMV expression vector containing a rat recombinant GABAAR α, β or γ subunits. Co-transections were done with a plasmid ratio of 1:1 αβ and 2:2:1 for αβγ subunit combinations, respectively. pcDNA3.1-GFP was also co-transfected along with GABAAR subunits as a transfected marker in order to facilitate the visualization of the transfected cells during electrophysiological experiments. Cells were re-plated on glass coverslips after 15–20 h transfection and were cultured for an additional 15–24 h before whole-cell patch-clamp recordings.\n(§3) The site-directed mutagenesis of α, β or γ subunits were performed by using the QuikChange method (Stratagene). […] Wild-type or mutant subunits were transfected in HEK293 cells and subjected to electrophysiology examinations.\n(§4) Whole-cell patch-clamp recordings were performed under voltage-clamp mode using an Axopatch 200B or 1D patch-clamp amplifier (Molecular Devices) on HEK293 cells and cultured neurons. Whole-cell currents were recorded at a holding potential of −60 mV, and signals were filtered at 2 kHz, digitized at 10 kHz (Digidata 1322 A). Recording pipettes (3–5 MΩ) were filled with the intracellular solution that contained (mM): CsCl 140, HEPES 10, Mg-ATP 4, QX-314 5, pH 7.20; osmolarity, 290–295 mOsm. BAPTA (10 mM) was added in the intracellular solution. The coverslips were continuously superfused with the extracellular solution containing (mM): NaCl 140, KCl 5.4, HEPES 10, MgCl2 1.0, CaCl2 1.3, glucose 20, pH 7.4; osmolarity, 305–315 mOsm. […] Dose–response curves were created by fitting data to Hill equation: I = Imax/[1 + (EC50/[A])^n], where I is the current, Imax is the maximum current, [A] is a given concentration of agonist, n is the Hill coefficient. […] All experiments were performed at room temperature."}, "αE137Gβ GABAAR": {"molecular_target": "T2, αE137Gβ GABAAR (Rattus norvegicus, UniProt P62813+P63138, E164G)", "T2 construct": "expressed in transfected cells; host or cells: HEK293", "T2 sequence (P62813 28-455 E164G)": "as the sequence (P62813 28-455 K131D) above, with D104K, E137G counted along it", "T2 sequence (P63138 26-474)": "as the sequence (P63138 26-474) above", "assay": "Patch clamp, HEK293, mutant α1β2 GABAAR", "conditions": "HEK293, read-out: Glutamate potentiation of GABA currents, % of control, normalized to wild-type α1β2", "description": "as §1, §2, §3, §4"}, "αK155Dβ GABAAR": {"molecular_target": "T3, αK155Dβ GABAAR (Rattus norvegicus, UniProt P62813+P63138, K182D)", "T3 construct": "expressed in transfected cells; host or cells: HEK293", "T3 sequence (P62813 28-455 K182D)": "as the sequence (P62813 28-455 K131D) above, with D104K, K155D counted along it", "T3 sequence (P63138 26-474)": "as the sequence (P63138 26-474) above", "assay": "Patch clamp, HEK293, mutant α1β2 GABAAR", "conditions": "HEK293, read-out: Glutamate potentiation of GABA currents, % of control, normalized to wild-type α1β2", "description": "as §1, §2, §3, §4"}, "αβE181G GABAAR": {"molecular_target": "T4, αβE181G GABAAR (Rattus norvegicus, UniProt P62813+P63138, E206G)", "T4 construct": "expressed in transfected cells; host or cells: HEK293", "T4 sequence (P62813 28-455)": "as the sequence (P62813 28-455 K131D) above, with D104K counted along it", "T4 sequence (P63138 26-474 E206G)": "as the sequence (P63138 26-474) above, with E181G counted along it", "assay": "Patch clamp, HEK293, mutant α1β2 GABAAR", "conditions": "HEK293, read-out: Glutamate potentiation of GABA currents, % of control, normalized to wild-type α1β2", "description": "as §1, §2, §3, §4"}, "rat α1β2γ2 GABAARs": {"molecular_target": "T5, rat α1β2γ2 GABAARs (Rattus norvegicus, UniProt P62813+P63138)", "T5 construct": "expressed in transfected cells; host or cells: HEK293", "T5 sequence (P62813 28-455)": "as the sequence (P62813 28-455 K131D) above, with D104K counted along it", "T5 sequence (P63138 26-474)": "as the sequence (P63138 26-474) above", "T5 sequence (P18508 39-466 partner)": "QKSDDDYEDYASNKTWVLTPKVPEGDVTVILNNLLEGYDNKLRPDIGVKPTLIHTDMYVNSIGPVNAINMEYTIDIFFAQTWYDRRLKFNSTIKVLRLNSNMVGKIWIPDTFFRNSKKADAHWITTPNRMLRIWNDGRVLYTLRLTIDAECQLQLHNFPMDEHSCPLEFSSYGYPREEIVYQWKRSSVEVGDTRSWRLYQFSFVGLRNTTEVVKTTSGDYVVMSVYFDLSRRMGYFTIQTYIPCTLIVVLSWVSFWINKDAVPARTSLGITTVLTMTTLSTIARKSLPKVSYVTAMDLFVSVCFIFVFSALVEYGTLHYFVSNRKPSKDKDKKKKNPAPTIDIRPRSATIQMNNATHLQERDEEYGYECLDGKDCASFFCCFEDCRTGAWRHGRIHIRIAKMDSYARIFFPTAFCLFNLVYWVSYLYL", "assay": "Whole-cell patch clamp of GABA-evoked currents, HEK293 cells expressing wild-type α1β2γ2", "description": "(§5) Co-expression of the α and β subunits is the minimum requirement for a functional recombinant GABAAR expressed in a heterologous cell line such as HEK293, while co-expression of the α, β and γ subunits is required for the recombinant receptor with a full pharmacological profile.[2] We therefore transiently expressed either rat α1β2 or α1β2γ2 subunits in HEK293 cells.\nas §2, §4"}, "[1]": {"molecular_target": "T6, αK104βE181G GABAAR (α1 K104D and β2 E181G) (Rattus norvegicus, UniProt P62813+P63138, E206G/K131D)", "T6 construct": "expressed in transfected cells; host or cells: HEK293", "T6 sequence (P62813 28-455 K131D)": "as the sequence (P62813 28-455 K131D) above", "T6 sequence (P63138 26-474 E206G)": "as the sequence (P63138 26-474) above, with E181G counted along it", "assay": "Patch clamp, HEK293, double mutant α1β2 GABAAR", "conditions": "HEK293, read-out: Glutamate potentiation of GABA currents, % of control, normalized to wild-type α1β2", "description": "as §1\n(§6) To further investigate the characteristics of these four residues, double amino acid substitutions were introduced at residue pairs that are located at different (α1β2) subunits (Fig. 3f and Supplementary Fig. S6b).\nas §2, §3\n(§7) Whole-cell patch-clamp recordings were performed under voltage-clamp mode using an Axopatch 200B or 1D patch-clamp amplifier (Molecular Devices) on HEK293 cells and cultured neurons. Whole-cell currents were recorded at a holding potential of −60 mV, and signals were filtered at 2 kHz, digitized at 10 kHz (Digidata 1322 A). Recording pipettes (3–5 MΩ) were filled with the intracellular solution that contained (mM): CsCl 140, HEPES 10, Mg-ATP 4, QX-314 5, pH 7.20; osmolarity, 290–295 mOsm. BAPTA (10 mM) was added in the intracellular solution."}, "αK104D,E137Gβ GABAAR": {"molecular_target": "T7, αK104D,E137Gβ GABAAR (Rattus norvegicus, UniProt P62813+P63138, E164G/K131D)", "T7 construct": "expressed in transfected cells; host or cells: HEK293", "T7 sequence (P62813 28-455 K131D/E164G)": "as the sequence (P62813 28-455 K131D) above, with E137G counted along it", "T7 sequence (P63138 25-474 limits assumed)": "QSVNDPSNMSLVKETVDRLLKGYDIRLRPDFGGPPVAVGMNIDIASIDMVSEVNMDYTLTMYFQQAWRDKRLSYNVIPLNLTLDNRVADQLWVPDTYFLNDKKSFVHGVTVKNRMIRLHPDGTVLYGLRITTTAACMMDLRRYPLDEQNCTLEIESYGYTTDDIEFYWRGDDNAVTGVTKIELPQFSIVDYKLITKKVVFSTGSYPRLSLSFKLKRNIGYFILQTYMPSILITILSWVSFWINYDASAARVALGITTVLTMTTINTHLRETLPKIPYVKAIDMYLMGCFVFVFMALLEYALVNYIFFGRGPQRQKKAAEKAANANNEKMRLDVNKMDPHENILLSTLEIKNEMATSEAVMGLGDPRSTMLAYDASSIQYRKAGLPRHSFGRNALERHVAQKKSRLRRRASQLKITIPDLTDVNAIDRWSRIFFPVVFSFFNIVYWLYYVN", "assay": "Patch clamp, HEK293, double mutant α1β2 GABAAR", "conditions": "HEK293, read-out: Glutamate potentiation of GABA currents, % of control, normalized to wild-type α1β2", "description": "as §1, §6, §2, §3, §7"}, "αE137GβE181G GABAAR": {"molecular_target": "T8, αE137GβE181G GABAAR (Rattus norvegicus, UniProt P62813+P63138, E164G/E206G)", "T8 construct": "expressed in transfected cells; host or cells: HEK293", "T8 sequence (P62813 28-455 E164G)": "as the sequence (P62813 28-455 K131D) above, with D104K, E137G counted along it", "T8 sequence (P63138 26-474 E206G)": "as the sequence (P63138 26-474) above, with E181G counted along it", "assay": "Patch clamp, HEK293, double mutant α1β2 GABAAR", "conditions": "HEK293, read-out: Glutamate potentiation of GABA currents, % of control, normalized to wild-type α1β2", "description": "as §1, §6, §2, §3, §7"}, "α1^T206A β2 γ2 GABAAR": {"molecular_target": "T9, α1^T206A β2 γ2 GABAAR (Rattus norvegicus, UniProt P62813+P63138, T233A)", "T9 construct": "expressed in transfected cells; host or cells: HEK293", "T9 sequence (P62813 28-455 T233A)": "as the sequence (P62813 28-455 K131D) above, with D104K, T206A counted along it", "T9 sequence (P63138 26-474)": "as the sequence (P63138 26-474) above", "T9 sequence (P18508 39-466 partner)": "as the sequence (P18508 39-466 partner) above", "assay": "Patch clamp, HEK293, mutant GABAAR", "conditions": "glutamate 100 μM co-applied with GABA 1 μM; normalized to wild-type α1β2γ2", "description": "To positively confirm one of these two putative binding sites involved in glutamate binding, we performed a systemic mutational analysis of critical amino acids around these two sites followed by electrophysiological characterizations of their impacts on glutamate potentiation in HEK293 cells expressing wild-type or mutated α1β2γ2 GABAARs (Table 1).\nas §2, §3, §4"}, "rat α1β2 GABAARs": {"molecular_target": "T10, rat α1β2 GABAARs (Rattus norvegicus, UniProt P62813+P63138)", "T10 construct": "expressed in transfected cells; host or cells: HEK293", "T10 sequence (P62813 28-455)": "as the sequence (P62813 28-455 K131D) above, with D104K counted along it", "T10 sequence (P63138 26-474)": "as the sequence (P63138 26-474) above", "assay": "Whole-cell patch clamp of GABA-evoked currents, HEK293 cells expressing α1β2", "description": "as §5\nHEK293 cells were transiently transfected with rat GABAAR α1/β2 (a–e) or α1/β2/γ2 (f) subunits. Whole-cell voltage-clamp recordings were performed with a chloride-based intracellular recording solution at a holding membrane potential of −60 mV.\nas §2, §4"}, "α1/β3/γ2 GABAAR": {"molecular_target": "T11, α1/β3/γ2 GABAAR (Rattus norvegicus, UniProt P62813+P63079)", "T11 construct": "expressed in transfected cells; host or cells: HEK293", "T11 sequence (P62813 28-455)": "as the sequence (P62813 28-455 K131D) above, with D104K counted along it", "T11 sequence (P63079 26-473)": "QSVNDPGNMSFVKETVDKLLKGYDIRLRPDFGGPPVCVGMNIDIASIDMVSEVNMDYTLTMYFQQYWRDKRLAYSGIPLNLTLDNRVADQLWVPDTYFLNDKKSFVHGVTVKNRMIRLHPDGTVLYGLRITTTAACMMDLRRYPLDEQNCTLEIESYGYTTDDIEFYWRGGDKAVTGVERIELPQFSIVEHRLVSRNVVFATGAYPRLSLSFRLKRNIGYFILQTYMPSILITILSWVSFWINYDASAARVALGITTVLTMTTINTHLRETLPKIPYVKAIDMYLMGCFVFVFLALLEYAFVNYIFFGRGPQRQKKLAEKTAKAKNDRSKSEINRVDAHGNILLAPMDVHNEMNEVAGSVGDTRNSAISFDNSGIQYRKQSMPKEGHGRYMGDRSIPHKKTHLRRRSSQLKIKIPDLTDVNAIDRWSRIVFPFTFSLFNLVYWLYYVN", "T11 sequence (P18508 39-466 partner)": "as the sequence (P18508 39-466 partner) above", "assay": "Patch clamp, HEK293, β3-containing GABAAR", "conditions": "wild-type α1/β3/γ2"}},
  "data": [
    {"smiles": "N[C@@H](CCC(=O)O)C(=O)O", "note": "[glutamate, Glutamate]", "values": [
      {"measurement": "activity at 100 µM", "setting": "αK104Dβ GABAAR; Glu 100 μM", "value": "48.8 ± 9.5", "unit": "%"},
      {"measurement": "activity at 1000 µM", "setting": "αK104Dβ GABAAR; Glu 1 mM", "value": "94.7 ± 20.7", "unit": "%"},
      {"measurement": "activity at 100 µM", "setting": "αE137Gβ GABAAR; Glu 100 μM", "value": "109 ± 30.2", "unit": "%"},
      {"measurement": "activity at 1000 µM", "setting": "αE137Gβ GABAAR; Glu 1 mM", "value": "88.4 ± 5.9", "unit": "%"},
      {"measurement": "activity at 100 µM", "setting": "αK155Dβ GABAAR; Glu 100 μM", "value": "76.3 ± 10.5", "unit": "%"},
      {"measurement": "activity at 1000 µM", "setting": "αK155Dβ GABAAR; Glu 1 mM", "value": "90.1 ± 11.3", "unit": "%"},
      {"measurement": "activity at 100 µM", "setting": "αβE181G GABAAR; Glu 100 μM", "value": "51.2 ± 9.5", "unit": "%"},
      {"measurement": "activity at 1000 µM", "setting": "αβE181G GABAAR; Glu 1 mM", "value": "50.6 ± 8.4", "unit": "%"},
      {"measurement": "GABA currents in presence of ligand, compared with GABA alone", "setting": "rat α1β2γ2 GABAARs", "value": "169.3 ± 6.9", "unit": "%"},
      {"measurement": "Relative potentiation", "setting": "rat α1β2γ2 GABAARs", "value": 100.0, "unit": "%"},
      {"measurement": "activity at 100 µM", "setting": "[1]; glutamate 100 μM", "value": 6.6, "unit": "%"},
      {"measurement": "activity at 1000 µM", "setting": "[1]; glutamate 1 mM", "value": "27.4 ± 12.6", "unit": "%"},
      {"measurement": "activity at 100 µM", "setting": "αK104D,E137Gβ GABAAR; glutamate 100 μM", "value": "17.3 ± 12.9", "unit": "%"},
      {"measurement": "activity at 1000 µM", "setting": "αK104D,E137Gβ GABAAR; glutamate 1 mM", "value": "45.9 ± 20.9", "unit": "%"},
      {"measurement": "activity at 100 µM", "setting": "αE137GβE181G GABAAR; glutamate 100 μM", "value": "9.2 ± 3", "unit": "%"},
      {"measurement": "activity at 1000 µM", "setting": "αE137GβE181G GABAAR; glutamate 1 mM", "value": "16.2 ± 1.3", "unit": "%"},
      {"measurement": "Relative potentiation", "setting": "α1^T206A β2 γ2 GABAAR", "value": "129.3 ± 61.7", "unit": "%"},
      {"measurement": "amplitude of GABA-induced currents with glutamate co-applied", "setting": "rat α1β2 GABAARs", "value": "331.2 ± 44.5", "unit": "%"},
      {"measurement": "current produced by glutamate on its own", "setting": "rat α1β2 GABAARs", "value": "no noticeable current"},
      {"measurement": "lowest effective dose (20% potentiation)", "setting": "rat α1β2 GABAARs", "value": "around 30 μM"},
      {"measurement": "potentiation effect at saturated GABA concentration", "setting": "rat α1β2 GABAARs", "value": "almost no potentiation effect"},
      {"measurement": "EC50", "setting": "rat α1β2 GABAARs; potentiation of 1 μM GABA-induced currents, read-out: EC50 of glutamate potentiation", "value": "~180", "unit": "µM"},
      {"measurement": "potentiation of GABA-induced currents by glutamate", "setting": "α1/β3/γ2 GABAAR", "value": "could also potentiate GABA-induced currents"}
    ]}
  ]
}
